Data taken from PubChem BioAssay (NCI).
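Growth conditions: 96-well plates. Treatment: test compound, 48 hours, 5 concentrations. Analysis: linear interpolation between bracketing concentrations; unreached endpoints set to highest concentration. At the GI50, growth is halved. At the TGI there is no net growth.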

Assays:
Test in all cases: inhibition of tumour cell growth, NCI panel, 48 h
[1] = test system: HCC-2998 colon
[2] = test system: HCT-116 colon
[3] = test system: HL-60(TB) leukemia
[4] = test system: MALME-3M melanoma
[5] = test system: SF-268 CNS
[6] = test system: SK-MEL-28 melanoma
[7] = test system: UACC-257 melanoma
[8] = test system: A498 renal
[9] = test system: IGROV1 ovarian
[10] = test system: M14 melanoma

Row | SMILES | TGI [1] | TGI [2] | TGI [3] | TGI [4] | TGI [5] | TGI [6] | TGI [7] | GI50 [8] | TGI [8] | GI50 [1] | GI50 [2] | GI50 [3] | GI50 [9] | TGI [9] | GI50 [10] | TGI [10] | GI50 [5] | GI50 [7] | GI50 [4] | GI50 [6]
1 | FC(F)(F)c1ccc2nc(NCc3ccccc3)c(-c3ccccc3)nc2c1 | > 100 µM | > 100 µM | 48.9 µM | > 100 µM | > 100 µM | > 100 µM | > 100 µM |  |  |  |  |  |  |  |  |  |  |  |  | 
2 | COc1cccc2c1O/C(=C\c1ccc([N+](=O)[O-])s1)C2=O | > 100 µM | > 100 µM | > 100 µM |  | 4.72 µM |  | > 100 µM | > 100 µM | > 100 µM | 4 µM | 2.04 µM | 2.53 µM | 1.91 µM | 5 µM | 3.06 µM | > 100 µM | 2.02 µM | > 100 µM |  | 
3 | COc1c(C)c(OCC=C(C)C)cc(CO)c1CO | > 100 µM | > 100 µM | > 100 µM |  | > 100 µM |  | > 100 µM |  | > 100 µM |  |  |  |  | > 100 µM |  | > 100 µM |  |  |  | 
4 | CCOC(=O)Nc1c(C)nc2ccccn12 | > 100 µM | > 100 µM |  | > 100 µM | > 100 µM | > 100 µM | > 100 µM | > 100 µM | > 100 µM | > 100 µM | > 100 µM |  | > 100 µM | > 100 µM | > 100 µM | > 100 µM | > 100 µM | > 100 µM | > 100 µM | > 100 µM
5 | CCC(C)(C)n1c(C)nc2c1C(=O)c1ccccc1C2=O | > 100 µM | 35.8 µM | 47.9 µM | 86.7 µM | > 100 µM | > 100 µM | 84.4 µM |  |  |  |  |  |  | > 100 µM |  | > 100 µM |  |  |  | 
6 | COc1cc(OC)c(OC)cc1/C=N/NC(=O)N/N=C/c1cc(OC)c(OC)cc1OC |  | > 100 µM |  | > 100 µM | > 100 µM | > 100 µM | > 100 µM |  | > 100 µM |  |  |  |  | > 100 µM |  | > 100 µM |  |  |  | 
7 | CNc1nc(N)nc(Nc2ccc(I)cc2)c1N=O | > 100 µM | > 100 µM | > 100 µM | > 100 µM | > 100 µM | > 100 µM | > 100 µM |  |  |  |  |  |  | > 100 µM |  |  |  |  |  | 
8 | CN(C)CCNC(=O)Cc1ccccc1Nc1c(Cl)cccc1Cl | 24.7 µM | 31.2 µM | 36.1 µM |  | 36.2 µM | 33.7 µM | 29.1 µM |  |  |  |  |  |  | 38.4 µM |  | 33.9 µM |  |  |  | 
9 | CC1=C(C(=O)Nc2ccccc2)C(c2ccc(Cl)c(Cl)c2)C(C(=O)Nc2ccccc2)=C(C)N1 |  | 22.3 µM |  | 26.7 µM | 24.9 µM | 25.7 µM | 26.5 µM |  | 33.4 µM |  |  |  |  | 37.1 µM |  | 25.1 µM |  |  |  | 
10 | CCOC(=O)c1c(C)c2c(n1Cc1ccccc1)CSCC2=O | > 100 µM | 31.9 µM | 54.1 µM | 49.2 µM | > 100 µM | 55.7 µM | 94.1 µM |  |  | 25.4 µM | 11.8 µM | 18.8 µM | 16.9 µM | > 100 µM | 20 µM | 56.3 µM | 19.3 µM | 26.9 µM | 17.5 µM | 22.2 µM
11 | CC(=O)N/C(=C\c1ccccc1/C=C(\NC(C)=O)c1nc2cc(C)c(C)cc2[nH]1)c1nc2cc(C)c(C)cc2[nH]1 |  | 88.2 µM |  | 54.2 µM | > 100 µM | 48.8 µM |  |  | > 100 µM |  |  |  |  | 66.3 µM |  | 23.9 µM |  |  |  | 
12 | CO[C@@H]1CC[C@]2(C)OC[C@H](C)[C@@H]3C[C@@H](C)[C@@H](OC(C)=O)[C@@H]4[C@H]3[C@@H]2O[C@H]4C[C@@]1(C)O | > 100 µM |  | > 100 µM | > 100 µM | > 100 µM | > 100 µM | > 100 µM | > 100 µM | > 100 µM | > 100 µM |  | > 100 µM | > 100 µM | > 100 µM |  |  | > 100 µM | > 100 µM | 63.9 µM | > 100 µM
13 | C[C@H](CCOc1cccc(CC(=O)O)c1)N(Cc1cccc(C(F)(F)F)c1Cl)CC(c1ccccc1)c1ccccc1 | 18 µM | 13.6 µM | 24.6 µM | 21.7 µM | 20.3 µM | 20.1 µM | 25.2 µM |  |  | 5.15 µM | 3.68 µM | 5.58 µM | 5.77 µM | 19.4 µM | 7.23 µM | 24.2 µM | 5.28 µM | 10.2 µM | 7.39 µM | 7.3 µM
14 | C/C(=N\NC(N)=O)c1sc(-c2nc(C)c(/C(C)=N/NC(N)=O)s2)nc1C | > 100 µM |  | > 100 µM | > 100 µM | > 100 µM | > 100 µM | > 100 µM |  | > 100 µM |  |  |  |  | > 100 µM |  | > 100 µM |  |  |  | 
15 | C=C(C)C(C1C=C(CCC(C=O)=C(C)C)C(=O)O1)C1(OC)C=C(C)C(=O)O1 (centres undefined) | > 100 µM | > 100 µM | > 100 µM | > 100 µM |  | > 100 µM | > 100 µM |  |  | > 100 µM | 49.5 µM | > 100 µM | 92.6 µM | > 100 µM | > 100 µM | > 100 µM |  | > 100 µM | > 100 µM | > 100 µM
16 | COC(=O)c1c(C)cc(OC)c(C/C=C(\C)CCCc2coc(C=C(C)C)c2)c1OC | > 100 µM | > 100 µM | > 100 µM |  | > 100 µM | > 100 µM | > 100 µM |  |  |  |  |  |  | > 100 µM |  | > 100 µM |  |  |  | 
17 | CN1Nc2ccccc2CC1=O | > 100 µM | > 100 µM |  | > 100 µM | > 100 µM | > 100 µM | > 100 µM |  | > 100 µM |  |  |  |  | > 100 µM |  | > 100 µM |  |  |  | 
18 | O=C(O)c1ccc(CNCc2ccccc2)cc1 |  | > 100 µM | > 100 µM | > 100 µM | > 100 µM | > 100 µM | > 100 µM |  | > 100 µM |  |  |  |  | > 100 µM |  | > 100 µM |  |  |  | 
19 | CCCCCCCCCCCC[N+]12CC[N+](CCN)(CC1)CC2 | > 100 µM | > 100 µM | > 100 µM | > 100 µM | > 100 µM | > 100 µM | > 100 µM |  |  |  |  |  |  | 39.7 µM |  | > 100 µM |  |  |  | 
